Test results reported in paper PMC12078333, “Pharmacokinetic evaluation and bioavailability of KPT-335 (Verdinexor) in cats” (Frontiers in Veterinary Science, 2025).
Where “and” joins values, the source holds several entries; their conditions need not be identical. Identical values can stand only once. Like-named read-outs stand apart in the source and are kept apart here.

Assay: Pharmacokinetics study of KPT-335 in cats (i.v. injection, p.o. capsules and tablets; UPLC-MS/MS, non-compartmental analysis)
Type: in vivo
Settings: cats; for bioavailability / k el / Tmax / MRT last / AUC(0-inf) / AUC(0-t) / Cmax: both sexes, plasma, po; for k el: read-out: Lambda_z (converted); for Tmax: read-out: Tmax; for AUC(0-inf): read-out: AUCINF_obs; for AUC(0-t): read-out: AUClast; for Cmax: read-out: Cmax; for Plasma concentration: individual cats 1-6
Procedure: In this study, a parallel trial design was employed, 42 adult domestic cats (21 males and 21 females), aged 1 to 2 years and weighing 2.5 ± 0.25 kg. Cats were grouped by random number, with half male and female in each group, and all cats were determined to be systemically healthy during an initial screening visit 1 week prior to the experiment. They were acclimatized to the laboratory environment for 7 days before the study commenced. During this period, they were kept in solitary cages with free access to water. Cats in the fasting group were deprived of food for 12 h prior to and 2 h following drug administration, while those in the feeding group were fed twice a day. Food and water sources were consistent throughout the trail. During and at the end of the experiment, we systematically assessed the adverse reactions by recording parameters such as body weight, behavior, and coat gloss in all test cats both before and after the trial. These observations were conducted to evaluate whether any adverse reactions occurred. All procedures were reviewed and approved by the Institutional Animal Care and Use Committee of China Agricultural University (11305-23-E-002).
The UPLC-MS/MS system utilized a UPLC 1290 (Agilent) paired with a Phenomenex Kinetex C18 column (50 mm × 2.1 mm, 2.6 μm) for separation at a flow rate of 0.3 mL/min. The chromatographic mobile phase comprised water (A) and acetonitrile (B), both containing 0.1% formic acid. The gradient elution program was as follows: from 0.5 to 2.5 min, 10 to 95% B; from 2.5 to 4.5 min, 95% B; from 4.5 to 4.6 min, 95 to 10% B; and from 4.6 to 6.0 min, 10% B. The injection volume was 2 μL.
For mass spectrometry, an Agilent 6,475-LC-TQ equipped with an electrospray ion source was used. Multiple Reaction Monitoring (MRM) was selected to quantify KPT-335 in the positive ion mode. The ion transitions monitored were m/z 443.1 → 334.0 and 443.1 → 110.1 for KPT-335, and m/z 444.1 → 334.0 for the internal standard (IS). The cone voltage and collision energy were optimized for KPT-335 and the IS individually, set at 160 V and 25 eV, respectively. The optimized parameters for the instrument included an ion source temperature of 350°C, solvent removal temperature of 320°C, capillary voltage of 3.0 kV, and a solvent gas flow rate of 300 L/h.
The method was developed based on prior research conducted in the laboratory ([16]) and validated in accordance with international guidelines ([17]). The calibration concentration range for KPT-335 spanned from 0.5 to 100 ng/mL, with a lower limit of quantification (LLOQ) set at 0.5 ng/mL. The squared correlation coefficient (R^2) values exceeded 0.999, indicating high linearity.
For sample preparation, 100 μL of plasma was mixed with 10 μL of internal standard (IS) and 900 μL of acetonitrile, followed by vortexing for 2 min. The mixture was then centrifuged at 13,400 × g at 4°C for 10 min. The supernatant was filtered through a 0.22 μm organic membrane, and the resulting sample was analyzed using UPLC-MS/MS.
Cats were divided into seven groups, with six cats in each group. In the intravenous (i.v.) group (Group 1), cats received an injection of KPT-335 at a dosage of 1 mg/kg body weight (BW), administered via a bolus through a venous infusion needle. For the oral (p.o.) administration, cats were given capsules in a fasting state at doses of 0.2 mg/kg BW (Group 2), 1 mg/kg BW (Group 3), and 2 mg/kg BW (Group 4). Additionally, tablets were administered at 1 mg/kg BW (fasting, Group 5), 1 mg/kg BW (Group 6), and 2 mg/kg BW (Group 7) in a feeding state, followed by 3 mL of water delivered with a syringe.
For the p.o. administration, blood samples of 1.5 mL were collected via the brachial cephalic vein prior to administration and at 0.167, 0.333, 0.5, 0.75, 1, 1.5, 2, 4, 6, 8, 12, 24, 32, and 48 h post-administration. […]

[1] = 0.2 mg/kg, p.o., Capsule, Fasting, 0.2 mg/kg BW
[2] = 1 mg/kg, p.o., Capsule, Fasting, 1 mg/kg BW
[3] = 1 mg/kg, p.o., Tablet, Fasting, 1 mg/kg BW
[4] = 1 mg/kg, p.o., Tablet, Feeding, 1 mg/kg BW
[5] = 2 mg/kg, p.o., Capsule, Fasting, 2 mg/kg BW
[6] = 2 mg/kg, p.o., Tablet, Feeding, 2 mg/kg BW
[7] = capsule group, 0.2–2 mg/kg BW, reference 95% CI 0.90–1.10

## O=C(/C=C\n1cnc(-c2cc(C(F)(F)F)cc(C(F)(F)F)c2)n1)NNc1ccccn1 [KPT-335]
0.2 mg/kg, p.o., Capsule, Fasting, 0.2 mg/kg BW, read-out: F (absolute bioavailability)
  bioavailability: 43.7%
[1]
  k el: 3.33e-05 s⁻¹
  Tmax: 2.46 ± 2.75 h
1 mg/kg, Capsule, Fasting, 1 mg/kg BW
  MRT last: 5.94 ± 1.05 h
1 mg/kg, Tablet, Fasting, 1 mg/kg BW
  MRT last: 8.07 ± 1.73 h
1 mg/kg, Tablet, Feeding, 1 mg/kg BW
  MRT last: 5.8 ± 1.61 h
1 mg/kg, doses of 1 mg/kg BW, read-out: bioavailability of commercial tablets
  bioavailability: ~70%
[2]
  AUC(0-inf): 1420 ± 490 ng·h/mL
  AUC(0-t): 1420 ± 489 ng·h/mL
  Cmax: 260 ± 75 ng/mL
  k el: 3.61e-05 s⁻¹
  Tmax: 1.25 ± 0.39 h
1 mg/kg, p.o., Capsule, Fasting, 1 mg/kg BW, read-out: F (absolute bioavailability)
  bioavailability: 44.7%
[3]
  AUC(0-inf): 2430 ± 805 ng·h/mL
  AUC(0-t): 2410 ± 793 ng·h/mL
  Cmax: 264 ± 129 ng/mL
  k el: 3.61e-05 s⁻¹
  Tmax: 1.79 ± 1.17 h
1 mg/kg, p.o., Tablet, Fasting, 1 mg/kg BW, read-out: F (absolute bioavailability)
  bioavailability: 75.9%
[4]
  AUC(0-inf): 2270 ± 1260 ng·h/mL
  AUC(0-t): 2250 ± 1260 ng·h/mL
  Cmax: 364 ± 145 ng/mL
  k el: 5e-05 s⁻¹
  Tmax: 1.33 ± 0.41 h
1 mg/kg, p.o., Tablet, Feeding, 1 mg/kg BW, read-out: F (absolute bioavailability)
  bioavailability: 71%
2 mg/kg, Capsule, Fasting, 2 mg/kg BW
  MRT last: 7.57 ± 1.94 h
2 mg/kg, Tablet, Feeding, 2 mg/kg BW
  MRT last: 5.07 ± 0.69 h
[5]
  AUC(0-inf): 1850 ± 819 ng·h/mL
  AUC(0-t): 1840 ± 819 ng·h/mL
  Cmax: 280 ± 175 ng/mL
  k el: 2.78e-05 s⁻¹
  Tmax: 1.58 ± 0.38 h
2 mg/kg, p.o., Capsule, Fasting, 2 mg/kg BW, read-out: F (absolute bioavailability)
  bioavailability: 28.9%
[6]
  AUC(0-inf): 3010 ± 715 ng·h/mL
  AUC(0-t): 3000 ± 711 ng·h/mL
  Cmax: 559 ± 104 ng/mL
  k el: 5.83e-05 s⁻¹
  Tmax: 1.58 ± 0.2 h
2 mg/kg, p.o., Tablet, Feeding, 2 mg/kg BW, read-out: F (absolute bioavailability)
  bioavailability: 47.3%
Doses of 0.2–1 mg/kg BW, read-out: absolute bioavailability of capsules
  bioavailability: ~40%
0.2–2 mg/kg BW dosage range
  dose linearity of pharmacokinetics: not to exhibit linear pharmacokinetics
All groups
  differences in pharmacokinetic parameters (Cmax and AUClast) between male and female cats: no statistically significant differences
[7]
  95% confidence interval of β, dose vs AUClast: 0.63–1.11
  95% confidence interval of β, dose vs Cmax: 0.79–1.30
Capsule p.o. 0.2 mg/kg BW, 1.5 h, 0.2 mg/kg, in ng/mL
  Plasma concentration: 15.20 and 20.46 and 38.22 and 14.31 and 22.72 and 26.72
Capsule p.o. 0.2 mg/kg BW, 2 h, 0.2 mg/kg, in ng/mL
  Plasma concentration: 13.60 and 18.16 and 33.66 and 26.22 and 20.79 and 22.21
Capsule p.o. 0.2 mg/kg BW, 4 h, 0.2 mg/kg
  Plasma concentration: 8.71 ng/mL
Capsule p.o. 0.2 mg/kg BW, 4 h, 0.2 mg/kg, in ng/mL
  Plasma concentration: 14.86 and 24.97 and 21.41 and 17.43 and 19.90
Capsule p.o. 0.2 mg/kg BW, 6 h, 0.2 mg/kg
  Plasma concentration: 6.19 ng/mL
Capsule p.o. 0.2 mg/kg BW, 6 h, 0.2 mg/kg, in ng/mL
  Plasma concentration: 20.30 and 16.23 and 18.02 and 15.34
Capsule p.o. 0.2 mg/kg BW, 32 h, 0.2 mg/kg
  Plasma concentration: BLOQ
Capsule p.o. 0.2 mg/kg BW, 48 h
  Plasma concentration: BLOQ
Capsule p.o. 1 mg/kg BW, 48 h, 1 mg/kg
  Plasma concentration: BLOQ
i.v. 1 mg/kg BW, 0.083 h, 1 mg/kg, in ng/mL
  Plasma concentration: 1162.77 and 332.48 and 914.52 and 894.65 and 827.83 and 934.74
i.v. 1 mg/kg BW, 0.167 h, 1 mg/kg, in ng/mL
  Plasma concentration: 1202.33 and 331.12 and 812.32 and 891.11 and 808.43 and 825.26
i.v. 1 mg/kg BW, 0.25 h, 1 mg/kg, in ng/mL
  Plasma concentration: 1058.99 and 320.82 and 769.91 and 863.19 and 750.36 and 838.90
i.v. 1 mg/kg BW, 0.33 h, 1 mg/kg, in ng/mL
  Plasma concentration: 996.69 and 292.96 and 774.12 and 852.52 and 723.28 and 760.14
i.v. 1 mg/kg BW, 0.5 h, 1 mg/kg, in ng/mL
  Plasma concentration: 935.15 and 297.11 and 736.77 and 700.75 and 649.99 and 680.18
i.v. 1 mg/kg BW, 0.75 h, 1 mg/kg, in ng/mL
  Plasma concentration: 709.09 and 236.62 and 633.10 and 524.38 and 509.94 and 541.50
